Measurements taken from paper PMC9132415, “Identification of 1H-pyrazolo[3,4-b]pyridine derivatives as novel and potent TBK1 inhibitors: design, synthesis, biological evaluation, and molecular docking study” (Journal of Enzyme Inhibition and Medicinal Chemistry, 2022).
Read-outs that look alike come from different tables or passages of the source.

Molecular target: T1, TBK1 (Homo sapiens, UniProt Q9UHD2)
T1 sequence (Q9UHD2 1-729): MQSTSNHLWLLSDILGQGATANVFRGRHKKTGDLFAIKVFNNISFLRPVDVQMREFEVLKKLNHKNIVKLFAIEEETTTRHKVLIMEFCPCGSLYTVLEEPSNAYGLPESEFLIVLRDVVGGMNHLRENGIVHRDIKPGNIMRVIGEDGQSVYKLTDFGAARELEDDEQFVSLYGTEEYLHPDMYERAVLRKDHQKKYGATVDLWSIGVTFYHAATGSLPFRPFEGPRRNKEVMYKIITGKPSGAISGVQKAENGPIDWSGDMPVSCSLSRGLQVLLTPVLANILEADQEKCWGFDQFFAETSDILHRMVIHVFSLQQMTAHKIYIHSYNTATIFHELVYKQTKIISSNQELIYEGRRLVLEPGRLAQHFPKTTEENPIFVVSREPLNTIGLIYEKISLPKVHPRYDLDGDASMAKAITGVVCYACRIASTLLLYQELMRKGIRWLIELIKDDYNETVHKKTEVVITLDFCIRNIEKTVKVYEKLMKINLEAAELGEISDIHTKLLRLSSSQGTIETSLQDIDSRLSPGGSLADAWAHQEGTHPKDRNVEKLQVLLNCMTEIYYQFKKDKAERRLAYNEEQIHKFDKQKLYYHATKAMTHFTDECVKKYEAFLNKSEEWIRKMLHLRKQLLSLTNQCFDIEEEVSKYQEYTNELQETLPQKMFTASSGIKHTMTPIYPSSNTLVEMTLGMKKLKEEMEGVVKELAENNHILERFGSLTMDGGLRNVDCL
Test: FRET-based Z'-LYTE TBK1 enzymatic assay
Type: biochemical
Design: purchased Thermo Scientific A31513
Details: for inhibition at 0.001 µM: compound at 1 nM, read-out: TBK1 inhibition (%) 1 nM; for IC50: mean of two separate experiments; for inhibition at 0.0001 µM: compound at 0.1 nM, read-out: TBK1 inhibition (%) 0.1 nM

[1] = read-out: TBK1 inhibition (%) 10 nM, compound at 10 nM, 100 µM ATP
[2] = read-out: TBK1 inhibition (%) 100 nM, compound at 100 nM, 100 µM ATP
[3] = compound at 10 nM, 100 µM ATP, read-out: TBK1 inhibition (%) 10 nM
[4] = compound at 100 nM, 100 µM ATP, read-out: TBK1 inhibition (%) 100 nM
[5] = compound at 1 μM, 100 µM ATP, read-out: TBK1 inhibition (%) 1 μM
[6] = compound at 10 μM, 100 µM ATP, read-out: TBK1 inhibition (%) 10 μM
[7] = read-out: TBK1 inhibition (%) 1 μM, compound at 1 μM, 100 µM ATP
[8] = read-out: TBK1 inhibition (%) 10 μM, compound at 10 μM, 100 µM ATP

SMILES	inhibition at 0.1 µM [2]	inhibition at 0.001 µM (100 µM ATP)	inhibition at 0.01 µM [3]	inhibition at 0.1 µM [4]	inhibition at 1 µM [5]	IC50 (100 µM ATP)	inhibition at 1 µM [7]	inhibition at 10 µM [8]	further results
CC(C)n1c(C(F)(F)F)nc2c(F)cc(-c3n[nH]c4ncc(-c5ccc(S(N)(=O)=O)cc5)cc34)cc21 [Compound 15w]	27.1%	–	–	–	–	–	–	–	TBK1 inhibitory activity (in words): almost lost TBK1 activity; inhibition at 0.01 µM [1]: 10.7%
CC(C)n1cnc2ccc(-c3n[nH]c4ncc(-c5ccc(C(N)=O)cc5)cc34)cc21 [Compound 15h]	–	24%	29.1%	75.6%	104%	58.9 nM	–	–	inhibition at 10 µM [6]: 103%
CN1CCN(Cc2ccc(-c3cnc4[nH]nc(NCCc5ccc(F)cc5)c4c3)cc2)CC1 [Compound 12e]	-1.4%	–	–	–	–	–	-2.4%	-5%	–
Cc1nc2c(F)cc(-c3n[nH]c4ncc(-c5ccc(S(N)(=O)=O)cc5)cc34)cc2n1C(C)C [Compound 15t]	–	61.6%	78%	79.5%	99.1%	0.8 nM	–	–	fold increase of TBK1 activity compared with compound 15i (compared with 15i): 10 times; inhibition at 0.0001 µM (100 µM ATP): 43.1%
CN1CCN(Cc2ccc(-c3cnc4[nH]nc(-c5cccc(N)c5)c4c3)cc2)CC1 [Compound 15b]	11%	–	–	–	–	–	14.3%	47.9%	–
CC(C)n1cnc2ccc(-c3n[nH]c4ncc(-c5ccc(C(=O)N6CCN(C)CC6)cc5)cc34)cc21 [Compound 15g]	–	8.6%	29.9%	91.7%	108%	26 nM	–	–	inhibition at 10 µM [6]: 108%
CN1CCN(Cc2ccc(-c3cnc4[nH]nc(NCCc5ccccc5)c4c3)cc2)CC1 [Compound 12b]	7.3%	–	–	–	–	–	5.9%	3.2%	–
CN1CCN(Cc2ccc(-c3cnc4[nH]nc(NCc5ccc(Cl)cc5Cl)c4c3)cc2)CC1 [Compound 12c]	-30.1%	–	–	–	–	–	-6.7%	-2%	–
CN1CCN(Cc2ccc(-c3cnc4[nH]nc(NCCCN5CCOCC5)c4c3)cc2)CC1 [Compound 12h]	-7.8%	–	–	–	–	–	-4.3%	-5.2%	–
CN1CCN(Cc2ccc(-c3cnc4[nH]cc(-c5ccc6[nH]ccc6c5)c4c3)cc2)CC1 [URMC-099, reference compound]	–	–	–	–	–	–	–	75.4%	TBK1 inhibition (%) 10 μM (compound at 10 μM, 100 µM ATP): 75.3%
Cc1nc2c(F)cc(-c3n[nH]c4ncc(-c5cccc(S(N)(=O)=O)c5)cc34)cc2n1C1CC1 [Compound 15z]	–	32.7%	48.4%	84.4%	79.5%	24.4 nM	–	–	–
COc1ccc(CCNc2n[nH]c3ncc(-c4ccc(CN5CCN(C)CC5)cc4)cc23)cc1 [Compound 12f]	-9.7%	–	–	–	–	–	-7.9%	-0.5%	–
CC(C)n1cnc2ccc(-c3n[nH]c4ncc(-c5ccc(CN6CCN(C)CC6)cc5)cc34)cc21 [Compound 15e]	–	–	14.3%	62.8%	104%	75.3 nM	–	–	inhibition at 10 µM [6]: 108%
NS(=O)(=O)c1ccc(-c2cnc3[nH]nc(-c4cnn(CCO)c4)c3c2)cc1 [Compound 15o]	-2.7%	–	–	–	–	–	-7.4%	23.3%	–
CCn1cnc2ccc(-c3n[nH]c4ncc(-c5ccc(S(N)(=O)=O)cc5)cc34)cc21 [Compound 15u]	–	25.1%	30%	78.1%	89.6%	33.3 nM	–	–	inhibition at 0.0001 µM (100 µM ATP): 12.1%
CN1CCN(Cc2ccc(-c3cnc4[nH]nc(-c5ccc6[nH]cnc6c5)c4c3)cc2)CC1 [Compound 15d]	–	–	18%	52.5%	84.1%	131 nM	–	–	inhibition at 10 µM [6]: 102%
Cc1nc2ccc(-c3n[nH]c4ncc(-c5ccc(S(N)(=O)=O)cc5)cc34)cc2n1C(C)C [Compound 15s]	–	45.5%	68.6%	76.9%	97.2%	6.2 nM	–	–	–
Cc1nc2c(F)cc(-c3c[nH]c4ncc(-c5ccc(S(N)(=O)=O)cc5)cc34)cc2n1C(C)C [Compound 15ab]	–	60.1%	70.9%	72.9%	90.3%	3.6 nM	–	–	fold reduced activity against TBK1 compared to 15t (compared to 15t): 8 fold; inhibition at 0.0001 µM (100 µM ATP): 43.1%
NS(=O)(=O)c1ccc(-c2cnc3[nH]nc(-c4cnn(CCN5CCOCC5)c4)c3c2)cc1 [Compound 15n]	-8.9%	–	–	–	–	–	-15%	-12.5%	–
COC(=O)c1cccc(-c2cnc3[nH]nc(-c4ccc5ncn(C(C)C)c5c4)c3c2)c1 [Compound 15k]	–	–	19.5%	45%	82.6%	288 nM	–	–	inhibition at 10 µM [6]: 106%
CC(C)n1cnc2ccc(-c3n[nH]c4ncc(-c5ccc(S(N)(=O)=O)cc5)cc34)cc21 [Compound 15i]	–	47.3%	62.3%	75.4%	105%	8.5 nM	–	–	fold lower TBK1 IC50 than compound 15e (compared with 15e): ~10 times; inhibition at 10 µM [6]: 111%
NS(=O)(=O)c1ccc(-c2cnc3[nH]nc(-c4cnn(C5CCOCC5)c4)c3c2)cc1 [Compound 15l]	-7.2%	–	–	–	–	–	-0.6%	21.9%	–
CN1CCN(Cc2ccc(-c3cnc4[nH]nc(NCc5ccccc5)c4c3)cc2)CC1 [Compound 12a]	-14.5%	–	–	–	–	–	-13.6%	-8%	–
CN1CCN(Cc2ccc(-c3cnc4[nH]nc(-c5cccc6cnccc56)c4c3)cc2)CC1 [Compound 15f]	–	–	–	28.7%	81.4%	290 nM	–	–	inhibition at 10 µM [6]: 101%
NS(=O)(=O)c1ccc(-c2cnc3[nH]nc(-c4ccc(N5CCOCC5)cc4)c3c2)cc1 [Compound 15m]	-8.9%	–	–	–	–	–	-6%	-11%	–
NS(=O)(=O)c1ccc(-c2cnc3[nH]nc(-c4cc(F)c5cn[nH]c5c4)c3c2)cc1 [Compound 15q]	12.7%	–	–	–	–	–	25.5%	83.9%	inhibition at 0.01 µM [1]: 4.5%
CC(=O)Nc1cc(-c2cnc3[nH]nc(-c4ccc5ncn(C(C)C)c5c4)c3c2)ccn1 [Compound 15j]	–	14.2%	31.5%	67.1%	104%	67.2 nM	–	–	inhibition at 10 µM [6]: 103%
CN1CCN(Cc2ccc(-c3cnc4[nH]nc(-c5ccc(N)cc5)c4c3)cc2)CC1 [Compound 15c]	38.3%	–	–	–	–	–	47.8%	86.8%	–
